# Measurements from US6670363B1, “Azole compounds as therapeutic agents for fungal infections” (Ranbaxy Laboratories Limited, priority 2000, dated 2003).
# Assays:
# Assay type in all cases: cell-based
# A. fumigatus s 1008 = test: In vitro MIC, NCCLS M38P broth method (RPMI 1640/MOPS pH7), Aspergillus fumigatus; conditions: A. fumigatus strain 1008
# Candida = test: In vitro MIC, NCCLS M27A, Candida species; parameters: MIC, Candida albicans 1.549 / MIC, Candida albicans Y-01-19 / MIC, C. krusei 766-1 / MIC, C. krusei Q. C / MIC, Candida tropicalis ATCC / MIC, C. glabrata 90030: unit not given beside the values; MIC, Candida albicans A 26 / MIC, C. parapsilosis Q. C.: unit not given here; conditions: for MIC, C. glabrata 90030: C. glabrata strain 90030; for MIC, C. krusei 766-1: C. krusei strain 766-1; for MIC, C. krusei Q. C: C. krusei strain Q. C; for MIC, C. parapsilosis Q. C.: C. parapsilosis strain Q. C.; for MIC, Candida albicans 1.549: Candida albicans strain 1.549; for MIC, Candida albicans A 26: Candida albicans strain A 26; for MIC, Candida albicans Y-01-19: Candida albicans strain Y-01-19
# Cryptococcus neoformans = test: In vitro MIC, NCCLS M27A, Cryptococcus neoformans; parameters: MIC, C. neoformans I: unit not given beside the values; MIC, C. neoformans M 106: unit not given here; conditions: for MIC, C. neoformans I: C. neoformans strain I; for MIC, C. neoformans M 106: C. neoformans strain M 106
# Histoplasma capsulatum = test system: Histoplasma capsulatum
SMILES,"MIC, A. fumigatus 1008 (A. fumigatus s 1008)","MIC, C. glabrata 90030 (Candida)","MIC, C. krusei 766-1 (Candida)","MIC, C. krusei Q. C (Candida)","MIC, C. parapsilosis Q. C. (Candida)","MIC, Candida albicans 1.549 (Candida)","MIC, Candida albicans A 26 (Candida)","MIC, Candida albicans Y-01-19 (Candida)","MIC, Candida tropicalis ATCC (Candida)","MIC, C. neoformans I (Cryptococcus neoformans)","MIC, C. neoformans M 106 (Cryptococcus neoformans)","MIC, H. capsulatum (Histoplasma capsulatum)"
C[C@@H](n1ncn(-c2ccc(N3CCN(c4ccccc4)CC3)cc2)c1=O)[C@](O)(Cn1cncn1)c1ccc(F)cc1F [Compound 5],0.50,1.00,0.50,0.12,<0.03,2.00,<0.03,0.12,<0.03,<0.03,<0.03,< 0.03 µg/mL
"COc1ccc(F)cc1N1CCN(c2ccc(-n3cnn(CC(O)(Cn4cncn4)c4ccc(F)cc4F)c3=O)cc2)CC1 (stereo not drawn) [Compound 59, 2-[2-(2,4-Difluorophenyl)-2-hydroxy-3-(1H-1,2,4-triazol-1-yl)propyl]-4-{4-[4-(2-methoxy-5-fluorophenyl)-1-piperazinyl]phenyl}-3-(2H,4H)-1,2,4-triazolone]",>16,1.00,4.00,1.00,<0.03,1.00,<0.03,0.50,<0.03,<0.03,0.12,< 0.03 µg/mL
"CCc1ccccc1N1CCN(c2ccc(-n3c(C)nn([C@H](C)[C@@](O)(Cn4cncn4)c4ccc(F)cc4F)c3=O)cc2)CC1 [Compound 32, 2-{[1R2S/1S2R]-2-(2,4-Difluorophenyl)-2-hydroxy-1-methyl-3-(1H-1,2,4-triazol-1-yl)propyl}-4-{4-[4-(2-ethylphenyl)-1-piperazinyl]phenyl}-3-(2H,4H)-5-methyl-1,2,4-triazolone]",>16,2.00,>16,4.00,0.50,>16,<0.03,4.00,<0.03,0.50,0.50,0.25 µg/mL
"O=c1n(-c2ccc(N3CCN(c4ccc(F)cc4Cl)CC3)cc2)cnn1CC(O)(Cn1cncn1)c1ccc(F)cc1F (stereo not drawn) [Compound 58, 2-[2-(2,4-Difluorophenyl)-2-hydroxy-3-(1H-1,2,4-triazol-1-yl)propyl]-4-{4-[4-(2-chloro-4-fluorophenyl)-1-piperazinyl]phenyl}-3-(2H,4H)-1,2,4-triazolone]",2.00,0.25,1.00,0.25,<0.03,0.03,<0.03,0.03,<0.03,<0.03,<0.03,0.004 µg/mL
"COc1ccc(F)cc1N1CCN(c2ccc(-n3c(C)nn([C@H](C)[C@](O)(Cn4cncn4)c4ccc(F)cc4F)c3=O)cc2)CC1 [Compound 27, 2-{[1R2R/1S2S]-2-(2,4-Difluorophenyl)-2-hydroxy-1-methyl-3-(1H-1,2,4-triazol-1-yl)propyl}-4-{4-[4-(2-methoxy-5-fluorophenyl)-1-piperazinyl]phenyl}-3-(2H,4H)-5-methyl-1,2,4-triazolone]",>16,1.00,2.00,0.50,<0.03,1.00,<0.03,0.50,<0.03,<0.03,<0.03,< 0.03 µg/mL
"Cc1ccc(N2CCN(c3ccc(-n4cnn([C@H](C)[C@](O)(Cn5cncn5)c5ccc(F)cc5F)c4=O)cc3)CC2)c(C)c1 [Compound 19, 2-{[1R2R/1S2S]-2-(2,4-Difluorophenyl)-2-hydroxy-1-methyl-3-(1H-1,2,4-triazol-1-yl)propyl}-4-{4-[4-(2,4-dimethylphenyl)-1-piperazinyl]phenyl}-3-(2H,4H)-1,2,4-triazolone]",>16,>16,>16,0.50,0.06,1.00,<0.03,1.00,<0.03,<0.03,<0.03,0.5 µg/mL
"C[C@@H](n1ncn(-c2ccc(N3CCN(c4ccc(F)cc4)CC3)cc2)c1=O)[C@@](O)(Cn1cncn1)c1ccc(F)cc1F [Compound 12, 2-{[1R2S/1S2R]-2-(2,4-Difluorophenyl)-2-hydroxy-1-methyl-3-(1H-1,2,4-triazol-1-yl)propyl}-4-{4-[4-(4-fluorophenyl)-1-piperazinyl]phenyl}-3-(2H,4H)-1,2,4-triazolone]",>16,4.00,>16,8.00,0.06,4.00,<0.03,8.00,<0.03,0.12,0.25,< 0.03 µg/mL
"C[C@@H](n1ncn(-c2ccc(N3CCN(c4ccc([N+](=O)[O-])cc4[N+](=O)[O-])CC3)cc2)c1=O)[C@](O)(Cn1cncn1)c1ccc(F)cc1F [Compound 3, 2-{[1R2R/1S2S]-2-(2,4-Difluorophenyl)-2-hydroxy-1-methyl-3-(1H-1,2,4-triazol-1-yl)propyl}-4-{4-[4-(2,4-dinitrophenyl)-1-piperazinyl]phenyl}-3-(2H,4H)-1,2,4-triazolone]",0.25,0.25,1.00,0.50,<0.03,0.12,<0.03,0.50,<0.03,<0.03,<0.03,< 0.03 µg/mL
"COc1ccccc1N1CCN(c2ccc(-n3c(C)nn(CC(O)(Cn4cncn4)c4ccc(F)cc4F)c3=O)cc2)CC1 (stereo not drawn) [Compound 35, 2-[2-(2,4-Difluorophenyl)-2-hydroxy-3-(1H-1,2,4-triazol-1-yl)propyl]-4-{4-[4-(2-methoxyphenyl)-1-piperazinyl]phenyl}-3-(2H,4H)-5-methyl-1,2,4-triazolone]",>12.5,12.50,12.50,3.12,0.20,1.56,<0.02,3.12,<0.02,0.80,3.12,0.2 µg/mL
"Cc1nn(CC(O)(Cn2cncn2)c2ccc(F)cc2F)c(=O)n1-c1ccc(N2CCN(c3ccc(F)cc3)CC2)cc1 (stereo not drawn) [Compound 36, 2-[2-(2,4-Difluorophenyl)-2-hydroxy-3-(1H-1,2,4-triazol-1-yl)propyl]-4-{4-[4-(4-fluorophenyl)-1-piperazinyl]phenyl}-3-(2H,4H)-5-methyl-1,2,4-triazolone]",>12.5,3.12,3.12,1.56,<0.02,0.20,<0.02,0.40,<0.02,0.20,0.40,< 0.02 µg/mL
"C[C@@H](n1ncn(-c2ccc(N3CCN(c4cccc(C(F)(F)F)c4)CC3)cc2)c1=O)[C@@](O)(Cn1cncn1)c1ccc(F)cc1F [Compound 10, 2-{[1R2S/1S2R]-2-(2,4-Difluorophenyl)-2-hydroxy-1-methyl-3-(1H-1,2,4-triazol-1-yl)propyl}-4-{4-[4-(3-trifluoromethylphenyl)-1-piperazinyl]phenyl}-3-(2H,4H)-1,2,4-triazolone]",>16,0.50,>16,1.00,<0.03,0.50,<0.03,1.00,<0.03,0.06,<0.03,0.06 µg/mL
"COc1ccc(N2CCN(c3ccc(-n4cnn([C@H](C)[C@](O)(Cn5cncn5)c5ccc(F)cc5F)c4=O)cc3)CC2)cc1 [Compound 13, 2-{[1R2R/1S2S]-2-(2,4-Difluorophenyl)-2-hydroxy-1-methyl-3-(1H-1,2,4-triazol-1-yl)propyl}-4-{4-[4-(4-methoxyphenyl)-1-piperazinyl]phenyl}-3-(2H,4H)-1,2,4-triazolone]",0.25,0.50,0.50,0.12,<0.03,0.12,<0.03,0.25,<0.03,<0.03,<0.03,0.06 µg/mL
